Consider one compound from patent publication US20110177161A1, “PHARMACEUTICAL COMPOSITIONS OF [5(S)-(2'-HYDROXYETHOXY)-20(S)-CAMPTOTHECIN” (DR. REDDY'S LABORATORIES LIMITED, priority 2007, published 2011).

Values after ≈ are worked out from the molar mass of the structure shown.

One data set in a line: physchem. The class given is physicochemical. The protocol:
Excess amounts of DRF-(5S,20S)-1042 were added to aqueous solutions of HPBCD with concentrations ranging from 0-40% w/v and the suspensions were shaken at 200 rpm and 25° C. in an incubator shaker, till no further DRF-(5S,20S)-1042 went into solution. The solutions were filtered through a 0.22 μm membrane filter and subjected to analysis by HPLC by a process described above. The results are described in Table 3 and in FIG. 1.

Data set [1] can be described thus: Storage stability of powder composition and capsules (HPLC impurities, assay). The format is physicochemical. As to conditions: Table 13; E* (S-isomer). The protocol:
Samples are analyzed by HPLC using a Chiralcel OD-H 250×4.6 mm column with a 5 μm particle size, at a wavelength of 257 nm using a variable wavelength UV detector, and a mobile phase comprising buffer (0.01 M KH2PO4; pH 3.0±0.1): acetonitrile (68:32% v/v), flow rate 1 ml/minute.
For the determination of the R-isomer impurity in the compositions, conditions essentially similar to the ones described above are used. The mobile phase comprises buffer (pH 3.0±0.1): acetonitrile (76:24% v/v).
For impurities other than the R-isomer the HPLC analysis comprises a Waters HPLC system equipped with a variable wavelength UV detector using symmetry C18, 250 column with a 5 μm particle size, at a wavelength of 257 nm, column temperature of 40° C. The mobile phase comprises
The capsules of Example 9B were charged for stability for about 3 months at different temperature conditions such as 2-8° C., 25° C. and the samples were analyzed by an HPLC procedure described above.
The powder composition of Example 13 was filled in amber coloured glass vials and sealed. Both initial sample and samples exposed at 25° C./60% RH (relative humidity), 30° C./65% RH, 40° C./75% RH for period of 3 days were analyzed for impurities by using HPLC as per the process described above.
The capsules have been exposed at 25° C./60% RH, 30° C./65% RH and 40° C./75% RH for a period of 3 months and data has been tabulated in Table 13.
The capsules packed in HDPE containers were exposed to different stability conditions such as 40° C./75% RH, 30° C./65% RH, 25° C./60% RH, 2-8° C. for about 6-12 months.

The test system of data set [2] is 34 human cancer cell lines. Put plainly: In vitro cell growth assay, Sulphorhodamine B (SRB). The class given is cell-based. The settings on record: 48 h exposure. The protocol: Cell proliferation was evaluated by Sulphorhodamine B (SRB) assay where the amount of dye bound to the cells after staining gives a measure of cell growth. Refer to: JNCI, vol 83, No. 11, Jun. 5, 1991, which is incorporated herein by reference.
Briefly, cells (34 human cancer cell lines represented by bladder, breast, CNS, colon, epidermoid, lung, ovarian, melanoma, prostate, renal and uterine cancers) were seeded on a 96-well cell culture plates at a concentration of 10,000 cells per well and incubated at 37 degree C. in a CO2 incubator. Twenty-four hours later, cells were treated with different concentrations of […] dissolved in DMSO to a final concentration of 0.05% in the culture medium and exposed for 48 h. Cells were fixed by adding ice-cold 50% trichloroacetic acid (TCA) and incubating for 1 h at 4° C. The plates were washed with distilled water, air dried and stained with SRB solution (0.4% wt/vol in 1% Acetic acid) for 10 min at room temperature. Unbound SRB was removed by washing thoroughly with 1% acetic acid and the plates were air-dried. The bound SRB stain was solubilized with 10 mM Tris buffer, and the optical densities were read on a spectrophotometric plate reader at a single wavelength of 515 nm. […] From the optical densities the percentage growths were calculated using the following formulae: […]

In data set [3] the test system is Human bone marrow mononuclear cells. Put plainly: Human bone marrow assay (CFU-GM colonies). The format is cell-based. As to conditions: GI90 for human cell toxicity to GI50 for anticancer activity. The protocol:
Methocult.TM. GF (Cat No: H4534, Poietics, Biowhittakar, USA) medium comprising Methycellulose in iscove's MDM, Fetal bovine serum, Bovine serum albumin, 2-Mercaptoethanol, L-Glutamine, rhStem cell factor, rhGM-CSF and rhIL-3 was used for the assay. Human bone marrow mononuclear cells (Cat No. 2M-125C, Poietics, Biowhittakar, USA) were mixed with Methocult GF and the cell density was adjusted to 3×10^5 cells/ml. From this preparation, 500 μL aliquots were made and […] of 20× drug solution or vehicle was added to each aliquot and mixed thoroughly. 100 μL of clonogenic medium was plated into each well and the plates were allowed to gel at 4° C. for 15 minutes. Plates were incubated at 37 degree C. in a fully humidified atmosphere of 5% CO2 in an incubator for 14 days. CFU-GM colonies were counted under an inverted microscope as aggregates of 50 cells or more. The percentage colony inhibition was calculated using the following formula: 100−[(number of colonies in drug treated wells/Number of colonies in control wells)×100].

A further data set is described as follows: in vivo. As to conditions: male, Wistar, rat, po, 2.5 mg/kg. Further details: species or system male Wistar rats. The protocol: 5(S)-CPT (2.5 mg/kg) and 5(RS)-CPT (5 mg/kg, including 2.5 mg/kg of 5(S)-CPT in the mixture) were been administered to male Wistar Rats to evaluate oral pharmacokinetics.
Male Wistar rats, 6-8 weeks of age and weighing between 205 and 218 g were divided into groups of four rats. The oral pharmacokinetics test was carried out in overnight fasted condition and intravenous pharmacokinetics was carried out in fed condition. The test drugs were administered as a solution by oral gavage or lateral tail vein injection. Sparse blood samples of about 250 microliters were collected from retro-orbital plexus at designated time points into microcentrifuge tubes containing 25 microliters of EDTA. Plasma was separated by centrifuging blood at 12,800 rpm for 2 min and refrigerated until analysis.
Samples were tested for the presence of the test drug as follows. An aliquot of 100 μL plasma (stored at 8° C.) was precipitated with 400 μL of cold methanol for the estimation of total (lactone+carboxylate). […] Concentrations of the test drug were calculated from the linearity plotted by spiking known concentrations of the test drug in blank rat plasma. The pharmacokinetics of the test drug was calculated using non-compartmental analysis.

On to `CC[C@@]1(O)C(=O)OCc2c1cc1n(c2=O)[C@@H](OCCO)c2cc3ccccc3nc2-1` [DRF-(5S,20S)-1042, 5(S)-(2′-hydroxyethoxy)-20(S)-camptothecin], for which, in “physchem”, the “increase in aqueous solubility and solubility in bio-relevant media vs uncomplexed state” value was “more than 50 fold”; the “increase in aqueous solubility when compared with water alone” value was “over 50 fold”. Besides, the solubility in the data set “physchem” (25 °C, water, thermodynamic from solid, Solubility) came to 20 µg/mL (≈ 49 µM). Besides, in data set [1], the “A = DRF (5R,20S)-1042” value came to 1.11 % Peak Area, the “B = Decarboxylated impurity” value is given as 0.02 % Peak Area, the “C = Dimer impurity” value worked out at 0.35 % Peak Area and the “D = Total impurities excluding DRF (5R,20S)-1042” value was found to be 0.96 % Peak Area. For the same compound, the GI50 in data set [2] came to 5 µM. Besides, the “Safety Margin GI90/GI50” value in data set [3] is 0.14. This compound also registered an AUC in the data set “in vivo” of 1.21 µM·h.
